Measurements published in the METLIN SMRT retention time set (Domingo-Almenara et al. 2019).

assay: gradient 5% acetonitrile 3 min, to 50% in 2 min, to 85% in 15 min, held 3 min, 100 µL/min; conditions: column: Zorbax Extend-C18 2.1 x 50 mm; eluents: water / acetonitrile, 0.1% formic acid
Method in brief: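 Standards, all pure, were combined into mixtures of ~100 molecules and run at 100 μL/min on a Zorbax Extend-C18 column (2.1 × 50 mm, 1.8 μm) with water and acetonitrile, each containing 0.1% formic acid. A coupled quadrupole time-of-flight mass spectrometer operated in positive and negative ionization mode. Retention time values come from computationally picked adduct peaks, each inspected manually.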

SMILES | RP-LC retention time
c1csc(-c2csc(CN3CCNCC3)n2)c1 | 548 s
CNC(=O)[C@@H]1CN(C(=O)c2cnccn2)C[C@H]1c1n[nH]c(C)n1 | 539 s
Cc1ccc(C)c(NC(=O)N2CCc3nc[nH]c3C2)c1 | 580 s
COc1ccc(OC)c(NC(=O)C2CCCN2S(=O)(=O)c2cc3c(cc2C)NC(=O)CO3)c1 (centres undefined) | 772 s
COc1ccc2[nH]cc(CCNC(=O)C34CCC=C3N(C3CCCC3)C(=O)CC4)c2c1 (centres undefined) | 798 s
COC(=O)c1ccsc1NC(=O)CS(=O)(=O)Cc1ccccc1 | 823 s
CN1c2cc(C(=O)NC3CCCC3)ccc2C(=O)N2CCCCC21 (centres undefined) | 767 s
O=c1c2nc(-c3ccc(F)cc3)cn2ccn1-c1ccc(Cl)cc1 | 867 s
CCOC(=O)Nc1c(Cl)n(C)c(=O)n(C)c1=O | 648 s
O=C(NCc1ccc(F)cc1)c1ccc(-n2nc(N3CCCC3)ccc2=O)cc1 | 810 s
COCCO[C@H]1C(=O)N(C2CCN(S(=O)(=O)c3cn(C)cn3)CC2)[C@H]1c1ccncc1 | 556 s
c1ccc(-c2cc(N3CCN(c4ccccn4)CC3)nn2-c2ccccc2)cc1 | 831 s
COc1ccc(S(=O)(=O)N2CCCC(C(=O)Nc3ccccc3Br)C2)cc1C (centres undefined) | 1040 s
CCCNc1cc(N2CCC(CCC(=O)NCc3ccc(C)cc3)CC2)ncn1 | 716 s
COc1ccc([N+](=O)[O-])cc1NC(=O)Cc1cccc2ccccc12 | 967 s
O=C(Nc1ccc(F)cc1)N1CCC(N2CC(F)(F)C[C@H]2COCC2CC2)CC1 | 699 s
COc1ccc(NC(=O)N2CCN(CCn3c(C(F)(F)F)nc4cccnc43)CC2)cc1 | 624 s
COc1cc2nc(C(=O)N3CCC(C)CC3)cc(Nc3cccc(SC)c3)c2cc1OC | 776 s
Cc1ccc(-c2cn3c(CC(=O)N4CCc5ccccc54)csc3n2)cc1C | 901 s
CCCCN1CCN(C(=O)CCC2CCCN(c3cc(NC4CC4)ncn3)C2)CC1 (centres undefined) | 565 s
CC(C)CN1C(=O)c2cccn2CC1C(=O)NCC1CC1 (centres undefined) | 731 s
CCCn1c(=O)c(N2CCN(C(=O)C3CCC3)CC2)nc2ccccc21 | 994 s
Cc1nn2c(CNS(=O)(=O)Cc3cccc(Cl)c3)c(-c3ccccc3)nc2s1 | 978 s

SMILES | RP-LC retention time
Cc1nn(CC(=O)NCc2ccco2)c(=O)c2c(-n3cccc3)n(-c3ccccc3)nc12 | 881 s
CCc1ccc(-c2csc(Nc3cc(C)ccn3)n2)cc1 | 1040 s
CC(C)CN1CCn2cc(C(=O)N3CCN(c4ccccn4)CC3)nc2C1 | 526 s
COC(=O)c1ccccc1NC(=O)CCCn1c(=O)c2cccn2c2ccc(Br)cc21 | 1120 s
CN(C)C(CNC(=O)C1(c2cccs2)CCCC1)c1ccsc1 (centres undefined) | 596 s
CCC(C)NC(=O)CCn1c(=O)c2ccccc2n2c(=O)n(Cc3ccc(F)cc3)nc12 (centres undefined) | 890 s
COc1ccc(Cc2nc3nccc(-c4cccc(OC)c4)n3n2)cc1 | 887 s
COc1cc(OC)c(OC)cc1CN1CC[C@]2(CO)CN(Cc3ccccc3)C[C@@H]2C1 | 597 s
CCCN1C(=O)c2cc(S(=O)(=O)Nc3ccc(F)cc3F)ccc2Oc2cccnc21 | 1050 s
O=S(=O)(NCc1cccnc1)c1ccc(Cl)c(-c2nnc(-c3ccccc3)o2)c1 | 707 s
CCS(=O)(=O)N1CCCc2cc(C(=O)Nc3cc(OC)ccc3OC)ccc21 | 954 s
Cc1nc(C)c(-c2nnc(NC(=O)c3cc(=O)c4ccccc4o3)o2)s1 | 653 s
CCCNc1nc(-c2ccc(Br)cc2)cs1 | 1000 s
O=C(NCc1ccccc1)c1ccc2c(c1)CCN2C(=O)C1CC1 | 794 s
COc1cccc(Oc2nccnc2N2CCC(C(=O)NCCC(C)C)CC2)c1 | 861 s
CCCN1C(=O)c2cc(S(=O)(=O)Nc3ccc(C)c(F)c3)ccc2Oc2cccnc21 | 1120 s
CCN1CCN(C(=O)C2CCCN(c3nnc4ccc(C(F)(F)F)cn34)C2)CC1 (centres undefined) | 567 s
CC(C)OC(=O)CCC/C=C\C[C@@H]1[C@@H](CC[C@@H](O)CCc2ccccc2)[C@H](O)C[C@@H]1O | 1020 s
Cc1cnc(C2CC2)n1CCNS(=O)(=O)Cc1ccccc1F | 619 s
COc1cccc(C(=O)Nc2nc(-c3ccc4c(c3)NC(=O)C(C)O4)c(C)s2)c1 (centres undefined) | 964 s
CC(Oc1ccc(=O)n(-c2ccc(F)cc2)n1)C(=O)Nc1ccccc1F (centres undefined) | 772 s
COc1cccc(CC(=O)Nc2ccc3c(c2)Sc2ncccc2C(=O)N3C(C)C)c1 | 855 s
Cc1cc(F)ccc1NC(=O)Cn1nc2cc(-c3ccccn3)nc(C)n2c1=O | 746 s

SMILES | RP-LC retention time
COc1ccccc1CC(=O)Nc1ccc2c(c1)CCC(=O)N2C | 721 s
O=C(CCc1csc(NC(=O)NC2CCCCC2)n1)NCc1cccs1 | 711 s
CCNC(=O)N1[C@H]2CC[C@@H]1c1cnc(-c3ccccc3)nc1C2 | 735 s
CCCNC(=O)N1CC(c2nc(C)no2)C2(CCOCC2)C1 (centres undefined) | 634 s
COC(=O)c1ccc(NC(=O)CN2CCc3[nH]c4c(OC)ccc(Cl)c4c(=O)c3C2)cc1 | 614 s
CCc1ccc(NC(=O)Cn2nc3cc(-c4ccccc4)nc(C)n3c2=O)cc1 | 899 s
CCc1cccc(NC(=O)Nc2ccc3nncn3c2)c1 | 747 s
Cc1ccnc(NC(=O)NCCCSc2nccc(C)n2)n1 | 643 s
COc1ccc(-n2nc3c(N4CCCC(C(=O)NCCc5cccs5)C4)nnc(C)c3c2C)cc1 (centres undefined) | 722 s
Cc1ccccc1-c1nc(-c2ccc(-n3cccn3)nc2)no1 | 1310 s
CCOc1ccccc1NC(=O)Cn1c(C)nc2c(sc3nc(-c4ccccc4)ccc32)c1=O | 1160 s
CCCOc1ccc(C(=O)Nc2nnc(C3CC(=O)N(c4ccc(Cl)cc4)C3)o2)cc1 (centres undefined) | 909 s
COc1cccc(-n2c(=O)c3sccc3n(Cc3nc(-c4ccccc4Cl)no3)c2=O)c1 | 969 s
O=C(NCCN1CCOC(c2ccccc2)C1)c1ccc(Cl)c(Cl)c1 (centres undefined) | 610 s
CN1CCN(CCNC(=O)Cn2c(=O)c3cccn3c3ccc(F)cc32)CC1 | 578 s
Cn1c(=O)c2nc(SCCC(=O)NCc3cc(F)cc(F)c3)n(C)c2n(C)c1=O | 733 s
COc1ccc(Oc2ncc(-c3ccc(C(=O)NC4CC4)cc3)cn2)cc1 | 774 s
COC(=O)c1cc(S(=O)(=O)N2CCCC2C(=O)NCc2ccccc2C)cn1C (centres undefined) | 846 s
COC(=O)c1cc(OCC(=O)Nc2cccc(Cl)c2)c2ccccc2n1 | 821 s
Cc1oc(-c2[nH]ncc2C(=O)N2CCOCC2)cc1S(=O)(=O)NC1CCCC1 | 645 s
COc1cccc(COC(=O)C2=CN(Cc3ccccc3)S(=O)(=O)N=C2C)c1 | 1090 s
O=C1NC(c2cccc3ccccc23)Nc2ccc(Cl)cc21 (centres undefined) | 847 s
Cc1ccc(Cl)cc1N1C(=O)CN(S(C)(=O)=O)CC1(C)C(=O)NC1CCCCC1 (centres undefined) | 880 s

SMILES | RP-LC retention time
Cc1ccc(NC(=O)C2CCCN2S(=O)(=O)c2cc3c(cc2Cl)NC(=O)CO3)c(C)c1 (centres undefined) | 868 s
CCc1nc(-c2csc(S(=O)(=O)N3CCC(C(=O)NCc4ccccc4Cl)CC3)c2)no1 | 984 s
CCN(CC)S(=O)(=O)c1cc(-c2nnc(-c3ccc(OC)c(OC)c3)o2)ccc1Cl | 1010 s
O=C(NC1CCCCCC1)c1ccc2c(c1)ncn2CCN1CCCC1 | 597 s
O=C(NC1CCCCCC1)C1CCCN(c2ccc(=O)n(-c3cccc(Cl)c3)n2)C1 (centres undefined) | 966 s
O=S(=O)(Nc1ccc(F)cc1)c1cccc2cccnc12 | 792 s
COc1ccc(C2(C(=O)N3CCN(C(=O)c4cc(-c5ccncc5)n[nH]4)CC3)CC2)cc1 | 610 s
Cn1nc(C(=O)N2CCC(C(=O)N3CCCC3)CC2)c2c1CCN(C(=O)Cc1ccc(F)cc1)C2 | 679 s
Cn1nc2n(c1=O)CCN(C(=O)c1cscn1)CC2 | 560 s
COc1cc(-c2noc(Cc3nnc(-c4cc(C)cc(C)c4)o3)n2)cc(OC)c1OC | 1050 s
O=C(Cn1nc2n(c1=O)CCCCC2)NCc1ccc(Cl)cc1 | 702 s
COc1ncc(C(=O)N2CCCC2)cn1 | 589 s
Cc1cc(-c2nnc(-c3ccccc3)o2)c(C)n1CC(=O)Nc1ccc2c(c1)OCCO2 | 902 s
Cc1cc(F)ccc1S(=O)(=O)NCCc1ccsc1 | 900 s
COc1ccc(-c2noc(CN3C(=O)COc4ccccc43)n2)cc1 | 953 s
CC(=O)Nc1ccc(-n2cnc(C(=O)NCCC3=CCCCC3)c2)nc1 | 739 s
CC(=O)Nc1cccc(NS(=O)(=O)c2ccc3c(c2)OCCCO3)c1 | 676 s
c1cc(N2CCSCC2)ncc1-c1noc(CN2CCOCC2)n1 | 702 s
CCc1cccc(NC(=O)Cn2ncc3c(c2=O)N(CC2CC2)C(=O)CS3)c1 | 859 s
CCOc1ccc(-c2noc(Cn3ccn4nc(-c5ccccc5C)cc4c3=O)n2)cc1 | 1160 s
